According to paper PMC11720106, “Synthesis of Pyrazole-Based Inhibitors of the Bacterial Enzyme N-Succinyl-L,L-2,6-Diaminopimelic Acid Desuccinylase (DapE) as Potential Antibiotics” (International Journal of Molecular Sciences, 2024):
Where “and” joins values, the source holds several entries; their conditions need not be identical. Equal values may be shown once.

Columns and labels:
HiDapE [1] = target: T1, HiDapE (Haemophilus influenzae, UniProt P44514); assay: Discontinuous ninhydrin-based HiDapE inhibition assay; type: biochemical; conditions: 8 nM HiDapE, 2 mM N6-methyl-L,L-SDAP; for inhibition at 100 µM: pH 7.5, 100 μM inhibitor; for IC50: 5–200 μM inhibitor
Protocol: Inhibitory Assay Protocol: A discontinuous inhibition assay was performed utilizing a Techne PCR Thermal Cycler System. The volume of each component was adjusted to fit a total reaction volume of 100 μL. The final potential inhibitor concentration was 100 μM for pyrazoles 7a–7r for screening experiments or 5–200 μM for IC50 experiments. All potential inhibitors were dissolved in neat dimethylsulfoxide (DMSO), and the pre-assay concentrations were adjusted to give a final concentration of 5% DMSO in the assay. The final HiDapE concentration was 8 nM. To a 50 mM HEPES (pH 7.5) buffered solution at 30 °C was added the selected inhibitor followed by HiDapE and incubated for 10 min. N^6-Methyl-L,L-SDAP (2 mM) was added, and the mixture was allowed to react for 10 min, followed by heating at 100 °C for 1 min and then cooled to 0 °C for 1 min. A 2% ninhydrin solution (100 μL) was added, and the mixture was mixed well by rapid pipetting while cooled at 0 °C. The reaction was then heated at 80 °C for 15 min. The absorbance of an 80 μL aliquot was recorded at 570 nm on a BioTek Synergy 2 microplate reader (Biotek Instruments, Winooski, VT, USA). All inhibition assays were performed in triplicate. The data were then exported and analyzed using Prism (version 10.4.1, GraphPad Prism, Boston, MA, USA).

HiDapE [2] = target: T1, HiDapE; assay: Discontinuous kinetic competition assay with HiDapE; type: biochemical
Protocol: We performed kinetic competition assays to investigate and confirm the binding mode of the pyrazole inhibitors. […] The velocity of the HiDapE enzyme was measured with different concentrations of substrate from 0 to 100 μM, and the plot is shown in Figure 2. After running the AICc statistical analysis to compare noncompetitive and competitive models, it was determined that a competitive binding mode is over 100 times more likely than noncompetitive binding with a 99.2% probability.
Kinetic assay Protocol: A discontinuous kinetic assay was performed utilizing a Techne PCR Thermal Cycler System. The volume of each component was adjusted to fit a total reaction volume of 100 μL. The final potential inhibitor concentration was 0, 20, 40, 60, and 100 μM for pyrazole 7r, where the inhibitor was dissolved in dimethylsulfoxide (DMSO), and the pre-assay concentrations were adjusted to give a final concentration of 5% DMSO in the assay. The in-assay HiDapE concentration was 8 nM. To a 50 mM HEPES (pH 7.5) buffered solution at 30 °C was added the selected inhibitor followed by HiDapE and incubated for 10 min. N^6-Methyl-L,L-SDAP at varied concentrations (0–8 mM) were added, and the mixture was allowed to react for 10 min, followed by heating at 100 °C for 1 min and then cooled to 0 °C for 1 min. A 2% ninhydrin solution (50 μL) was added, and the mixture was mixed well by rapid pipetting while cooled at 0 °C. The reaction was then heated at 80 °C for 15 min. The absorbance of an 80 μL aliquot was recorded at 570 nm on a BioTek Synergy 2 microplate reader. All concentrations were performed in triplicate. The data were then exported and analyzed using Prism using a non-linear regression Michaelis–Menten equation and using AICc statistical analysis to determine which inhibitory binding mode was preferred.

HiDapE [3] = target: T1, HiDapE; assay: Thermal shift assay (SYPRO Orange); type: binding; conditions: for Tm1 (HiDapE): 200 nM enzyme, 10X dye
Protocol: A thermal shift assay was conducted to observe changes in the thermal stability of DapE under various concentrations of the inhibitor (R)-7q, as summarized in Table 2. These studies were conducted on a Step One Real-Time PCR System^TM (Applied Biosystems, Waltham, MA, USA) and associated QuantStudio software (Version 7) through the fluorescence of the SYPRO Orange dye (Fisher Scientific, Waltham, MA, USA) during protein denaturation. We also used the thermal shift assay results to calculate the Ki value of pyrazole (R)-7q. […] Additionally, we observed a subsequent Tm2 at 78.0 °C involving a destabilization of the enzyme, as shown by the approximate −3 °C negative shift in melt temperature as the inhibitor increases in concentration, indicating at this elevated temperature that the inhibitor is binding to primarily the molten globule state. We have previously observed the second melt temperature with the DapE enzyme.
Thermal Shift Assay Protocol: Thermal shift studies were conducted on a Step One Real-Time PCR System and the associated QuantStudio software. Protein denaturation was measured by detecting the change in fluorescence of the SYPRO Orange dye. HiDapE was used at a final concentration of 200 nM, and SYPRO Orange was used at a final concentration of 10×. The experiment was carried out in 10 μL triplicates in 50 mM HEPES buffer at pH 7.5 in nanopure water, and the inhibitor concentrations were selected based on the half-maximal inhibitory concentration (IC50) values of the inhibitor. Sample solutions were dispensed into a 96-well optical reaction plate (Thermo Fisher Scientific, Kalamazoo, MI, USA), and the plate was sealed with an optical PCR plate sheet (Thermo Fisher Scientific, Kalamazoo, MI, USA). The assay was run according to Bhayani. Melting curves were obtained from the negative derivative and exported from the instrument to Microsoft Excel (Version 2402). The negative first derivatives of the melting curves were differentiated into the […]. Tm values were plotted against the log [concentration], and the Ki values were calculated using a derived Van’t Hoff equation according to Bhayani

T1 sequence (P44514 whole entry): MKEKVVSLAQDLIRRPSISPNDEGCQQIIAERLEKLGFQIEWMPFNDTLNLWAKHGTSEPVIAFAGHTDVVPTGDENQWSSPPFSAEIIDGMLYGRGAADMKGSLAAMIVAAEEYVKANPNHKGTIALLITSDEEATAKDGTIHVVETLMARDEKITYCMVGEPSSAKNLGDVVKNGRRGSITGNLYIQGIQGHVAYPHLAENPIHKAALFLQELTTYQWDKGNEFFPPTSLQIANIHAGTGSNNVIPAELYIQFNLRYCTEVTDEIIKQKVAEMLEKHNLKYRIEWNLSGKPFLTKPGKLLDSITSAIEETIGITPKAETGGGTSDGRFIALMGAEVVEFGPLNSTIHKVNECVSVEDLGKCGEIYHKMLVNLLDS

Cc1cc(SCC(=O)Nc2ccc(Cl)cn2)n(-c2ccccc2)n1 [Compound 7f, N-(5-Chloropyridin-2-yl)-2-((3-methyl-1-phenyl-1H-pyrazol-5-yl)thio)acetamide]
inhibition at 100 µM (HiDapE [1]; triplicate): 54.2 ± 0.3%

Cc1cc(SC(C)C(=O)NCc2ccccc2)n(-c2ccccc2)n1 (centres unmarked) [Compound 7o, N-Benzyl-2-((3-methyl-1-phenyl-1H-pyrazol-5-yl)thio)propanamide]
inhibition at 100 µM (HiDapE [1]; triplicate): 63.2 ± 1.8%

Cc1cc(SC(C)C(=O)Nc2ccccc2)n(-c2ccccc2)n1 (centres unmarked) [Compound 7n, 2-((3-Methyl-1-phenyl-1H-pyrazol-5-yl)thio)-N-phenylpropanamide]
inhibition at 100 µM (HiDapE [1]; triplicate): 79.4 ± 3.6%

Cc1cc(SC(C)C(=O)Nc2ccccn2)n(-c2ccccc2)n1 (centres unmarked) [Compound 7p, 2-((3-Methyl-1-phenyl-1H-pyrazol-5-yl)thio)-N-(pyridine-2-yl)propanamide]
IC50 (HiDapE [1]; pH 7.5): 35.6 µM and 35.7 µM
inhibition at 100 µM (HiDapE [1]; triplicate): 97.4 ± 2%

Cc1cc(SC(C)C(=O)Nc2ccon2)n(-c2ccccc2)n1 (centres unmarked) [Compound 7m, N-(Isoxazol-3-yl)-2-((3-methyl-1-phenyl-1H-pyrazol-5-yl)thio)propanamide]
inhibition at 100 µM (HiDapE [1]; triplicate): 19.5 ± 0.1%

Cc1cc(SCC(=O)Nc2ccccc2)n(-c2ccccc2)n1 [Compound 7c, 2-((3-Methyl-1-phenyl-1H-pyrazol-5-yl)thio)-N-phenylacetamide]
inhibition at 100 µM (HiDapE [1]; triplicate): 80.5 ± 3%

Cc1cc(SCC(=O)Nc2ccon2)n(-c2ccccc2)n1 [Compound 7b, N-(Isoxazol-3-yl)-2-((3-methyl-1-phenyl-1H-pyrazol-5-yl)thio)acetamide]
inhibition at 100 µM (HiDapE [1]; triplicate): 20.3 ± 3.6%

Cc1ccc(NC(=O)CSc2cc(C)nn2-c2ccccc2)nc1 [Compound 7e, 2-((3-Methyl-1-phenyl-1H-pyrazol-5-yl)thio)-N-(5-methylpyridin-2-yl)acetamide]
inhibition at 100 µM (HiDapE [1]; triplicate): 64.3 ± 5.5%

Cc1cc(SC(C)C(=O)Nc2nccs2)n(-c2ccccc2)n1 (centres unmarked) [Compound 7l, 2-((3-Methyl-1-phenyl-1H-pyrazol-5-yl)thio)-N-(thiazol-2-yl)propanamide]
inhibition at 100 µM (HiDapE [1]; triplicate): 28 ± 1.8%

Cc1cc(SCC(=O)Nc2nc3ccccc3[nH]2)n(-c2ccccc2)n1 [Compound 7k, N-(1H-Benzo[d]imidazol-2-yl)-2-((3-methyl-1-phenyl-1H-pyrazol-5-yl)thio)acetamide]
inhibition at 100 µM (HiDapE [1]; triplicate): 36.9 ± 2.7%

CCN(CC)C(=O)CSc1cc(C)nn1-c1ccccc1 [Compound 7j, N,N-Diethyl-2-((3-methyl-1-phenyl-1H-pyrazol-5-yl)thio)acetamide]
inhibition at 100 µM (HiDapE [1]; triplicate): 47.4 ± 7.2%

Cc1cc(SCC(=O)Nc2nccs2)n(-c2ccccc2)n1 [Compound 7a, 2-((3-Methyl-1-phenyl-1H-pyrazol-5-yl)thio)-N-(thiazol-2-yl)acetamide]
IC50 (HiDapE [1]; pH 7.5): 22.4 µM
inhibition at 100 µM (HiDapE [1]; triplicate): 95.2 ± 0.6%

Cc1cc(SCC(=O)Nc2ccccn2)n(-c2ccccc2)n1 [Compound 7d, 2-((3-Methyl-1-phenyl-1H-pyrazol-5-yl)thio)-N-(pyridine-2-yl)acetamide]
IC50 (HiDapE [1]; pH 7.5): 17.9 µM
inhibition at 100 µM (HiDapE [1]; triplicate): 85.7 ± 1.2%

Cc1cc(S[C@H](C)C(=O)Nc2ccccn2)n(-c2ccccc2)n1 [Compound 7q, (R)-2-((3-Methyl-1-phenyl-1H-pyrazol-5-yl)thio)-N-(pyridine-2-yl)propanamide]
% Inhibition at 100 μM (HiDapE [1]; 100 μM inhibitor, pH 7.5, triplicate): 99.1 ± 1.6%
IC50 (HiDapE [1]; pH 7.5): 18.8 µM
inhibition at 100 µM (HiDapE [1]; triplicate): 99%
binding mode (mode of inhibition) (HiDapE [2]; AICc comparison of competitive and noncompetitive models): competitive
likelihood of competitive over noncompetitive binding (HiDapE [2]; AICc statistical analysis): over 100 times
probability of competitive binding mode (HiDapE [2]; AICc statistical analysis): 99.2%
Tm1 (HiDapE) (HiDapE [3]; 1 μM inhibitor): 50.8 +/− 0.6 °C
Tm1 (HiDapE) (HiDapE [3]; 5 μM inhibitor): 50.1 +/− 0.1 °C
Tm1 (HiDapE) (HiDapE [3]; 10 μM inhibitor): 50.2 +/− 0.1 °C
Tm1 (HiDapE) (HiDapE [3]; 20 μM inhibitor): 52.7 +/− 0.3 °C
Tm1 (HiDapE) (HiDapE [3]; 40 μM inhibitor): 55.7 +/− 0.3 °C
Tm1 (HiDapE) (HiDapE [3]; 60 μM inhibitor): 60.6 +/− 0.7 °C
Tm1 (HiDapE) (HiDapE [3]; 80 μM inhibitor): 61.3 +/− 0.5 °C
Tm1 (HiDapE) (HiDapE [3]; 100 μM inhibitor): 63.1 +/− 0.2 °C
Tm (HiDapE [3]; as stated in the abstract): 50.2 °C
Ki (HiDapE [3]; calculated from positive melt temperature shift at Tm1, Van't Hoff equation): 17.3 ± 2.8 µM
shift in melt temperature at Tm2 (HiDapE [3]; negative shift as the inhibitor increases in concentration, Tm2 78.0 °C): ~−3 °C
shift in melt temperature at Tm1 (HiDapE [3]; positive shift as the inhibitor increases in concentration, Tm1 50.2 °C): +13 °C

Cc1cc(SCC(=O)Nc2ncccn2)n(-c2ccccc2)n1 [Compound 7g, 2-((3-Methyl-1-phenyl-1H-pyrazol-5-yl)thio)-N-(pyrimidin-2-yl)acetamide]
inhibition at 100 µM (HiDapE [1]; triplicate): 32.4 ± 3.4%

Cc1cc(SCC(=O)Nc2cnccn2)n(-c2ccccc2)n1 [Compound 7h, 2-((3-Methyl-1-phenyl-1H-pyrazol-5-yl)thio)-N-(pyrazin-2-yl)acetamide]
IC50 (HiDapE [1]; pH 7.5): 20.2 µM
inhibition at 100 µM (HiDapE [1]; triplicate): 96.2%

Cc1cc(S[C@@H](C)C(=O)Nc2ccccn2)n(-c2ccccc2)n1 [Compound 7r, (S)-2-((3-Methyl-1-phenyl-1H-pyrazol-5-yl)thio)-N-(pyridine-2-yl)propanamide]
inhibition at 100 µM (HiDapE [1]; triplicate): 14.6 ± 9.5%
